Holding throughout (assay): inhibition of tumour cell growth, NCI panel, 48 h
The test system of experiment [1] is A498 renal.
The subject of experiment [2] is HL-60(TB) leukemia.
For experiment [3], the system named is IGROV1 ovarian.
Experiment [4] relates to M14 melanoma.
The test system of experiment [5] is NCI-H23 lung.
Experiment [6] relates to PC-3 prostate.
Experiment [7] deals with RPMI-8226 leukemia.
Experiment [8] concerns SNB-19 CNS.
The subject of experiment [9] is SW-620 colon.
For experiment [10], the system named is TK-10 renal.

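48-hour exposure; five concentrations; linearly interpolated endpoints. Abbreviation: GI50, concentration required for 50% inhibition of growth. TGI: concentration producing complete growth inhibition.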 Bounds are passed on as bounds.

`COc1cc(N2CCN(C(C)C)CC2)ccc1Nc1nc(Nc2cccc3ncccc23)c2cc[nH]c2n1`: the GI50 was 0.811 µM in experiment [1]; 3.26 µM in experiment [2]; 12.1 µM in experiment [3]; 4.13 µM in [4]; 5.7 µM in experiment [5]; 8.99 µM in experiment [6]. Further, the GI50 in experiment [7] is 5.68 µM; in experiment [8], 8.99 µM; in [9] it was 3.6 µM; in experiment [10], 3.97 µM. For the same compound, the TGI in [1] is 12 µM; in experiment [2] it was 14.8 µM; in [3] it was more than 25 µM; in [4], 8.04 µM; in experiment [5] it was more than 25 µM; in experiment [6], more than 25 µM. The TGI in [7] was 17.8 µM; in experiment [8], more than 25 µM; in experiment [9] it was 14.9 µM; in experiment [10] it was 19.4 µM.
For `CCCCN(CCCC)c1ccc(C(=N)c2ccc(N(C)C)cc2)cc1`, the GI50 in [1] is 0.178 µM; in experiment [2] it was 0.336 µM; in experiment [3], 0.906 µM; in [4], 0.908 µM; in experiment [5], 0.278 µM; in experiment [6], 0.409 µM. The GI50 in experiment [7] is 0.224 µM; in experiment [8], 0.951 µM; in experiment [9] it was 0.438 µM; in experiment [10], 0.643 µM. The TGI in experiment [1] was found to be 1.8 µM; in [2] it was 1.16 µM; in [3], 2.44 µM; in experiment [4], 2.25 µM; in [5] it was 0.981 µM; in experiment [6] it was 1.67 µM. Besides, the TGI was determined as 0.737 µM in experiment [7], 2.37 µM in experiment [8], 1.78 µM in experiment [9] and 1.84 µM in experiment [10].
Turning to `CCN(CC)C(=O)CC1=C(C)/C(=C/c2[nH]c(-c3ccc[nH]3)cc2OC)N=C1C`, the GI50 in [1] was 0.98 µM; in experiment [2], 1.82 µM; in experiment [3], 0.43 µM; in experiment [4], 0.227 µM; in [5], 0.794 µM; in experiment [6], 0.35 µM. Also, the GI50 was 0.304 µM in [7], 4.1 µM in experiment [8], 0.334 µM in experiment [9] and 0.466 µM in [10]. Moreover, the TGI in [1] amounted to 7.12 µM; in [2], 61.9 µM; in experiment [3], 15.6 µM; in [4], 0.607 µM; in experiment [5], 71.9 µM; in experiment [6], 33 µM. Moreover, the TGI in experiment [7] is 2.28 µM; in experiment [8], more than 100 µM; in experiment [9], 13.4 µM; in experiment [10], 17.3 µM.
For the compound `Cc1onc(-c2c(F)cccc2Cl)c1-c1ncc(-c2ccc(Cl)cc2)o1`, the GI50 in [1] was 5.09 µM; in experiment [2] it was 4.02 µM; in [3], 6.44 µM; in experiment [4] it was 5.67 µM; in experiment [5], 5.04 µM; in [6], 4.21 µM. Also, the GI50 is 2.77 µM in experiment [7], 6.59 µM in experiment [8], 4.35 µM in [9] and 8.33 µM in experiment [10]. The TGI in experiment [1], in experiment [2], in experiment [3], in [4], in experiment [5] and in experiment [6] was more than 100 µM in each case. Besides, the TGI in [7] is 44.9 µM; in experiment [8], more than 100 µM; in experiment [9], more than 100 µM; in experiment [10], more than 100 µM.
Take `O=C(/C=C/C12c3ccccc3C(c3ccccc31)C1C(=O)N(c3ccccc3)C(=O)C12)c1ccc(Cl)cc1` (stereo not given): the GI50 is 1.16 µM in experiment [1]; 0.795 µM in [2]; 2.1 µM in experiment [3]; 2.14 µM in experiment [4]; 2.61 µM in experiment [5]; 1.42 µM in experiment [6]. The GI50 in experiment [7] was 1.16 µM; in [8], 2.68 µM; in [9] it was 2.27 µM; in experiment [10], 3.18 µM. In addition, the TGI in experiment [1] was determined as 2.44 µM; in [2] it was 5.18 µM; in experiment [3], 6.09 µM; in [4], 6.78 µM; in [5], 13.2 µM; in experiment [6] it was 8.27 µM. Besides, the TGI in experiment [7] is 4.68 µM; in experiment [8], more than 100 µM; in experiment [9] it was more than 100 µM; in experiment [10], 25.1 µM.
With `C=CCn1c(=O)c2cnc(Nc3ccc(N4CCN(C)CC4)cc3)nc2n1-c1ccc2c(n1)[C@@](O)(CC)CC2`, the GI50 in experiment [1] was 0.161 µM; in experiment [2], 0.189 µM; in experiment [3] it was 0.212 µM; in [4] it was 0.225 µM; in [5] it was 0.25 µM; in experiment [6] it was 2.24 µM. The GI50 was 1.74 µM in experiment [7], 1.85 µM in experiment [8], 0.525 µM in [9] and 1.41 µM in [10]. In addition, the TGI is 3.62 µM in [1]; 1.3 µM in experiment [2]; 13.6 µM in [3]; 5.81 µM in experiment [4]; 1.42 µM in experiment [5]; more than 100 µM in [6]. Also, the TGI is 14.5 µM in experiment [7], more than 100 µM in experiment [8], more than 100 µM in experiment [9] and 49.2 µM in experiment [10].
Take `COc1cc2c(c(OC)c1OC)C(=O)CC(c1cccc(NC(=O)c3ccc(Br)cc3)c1)O2` (stereo not given): the GI50 in [1] is 1.55 µM; in [2], 1.58 µM; in experiment [3] it was 3.05 µM; in experiment [4], 2.08 µM; in [5], 2.87 µM; in [6], 2.33 µM. The GI50 in experiment [7] is 1.44 µM; in experiment [8] it was 4.25 µM; in experiment [9] it was 3.83 µM; in experiment [10] it was 4.44 µM. The TGI is 8.15 µM in experiment [1]; 4.14 µM in experiment [2]; more than 100 µM in experiment [3]; 7.49 µM in experiment [4]; more than 100 µM in experiment [5]; 8.59 µM in experiment [6]. Besides, the TGI in experiment [7] is 3.93 µM; in experiment [8], more than 100 µM; in experiment [9] it was more than 100 µM; in experiment [10], more than 100 µM.

These data come from PubChem BioAssay (NCI).
